Measured values taken from patent US5077277A, “Chemical derivatives of antibiotics LL-E19020 alpha and beta” (American Cyanamid Company, priority 1989, dated 1991).

Assays:
Type in all cases: cell-based
Settings in all cases: 18 hours incubation
[1] = tested on: Streptococcus b-hemolyticus C 203; assay: In vitro antibacterial activity, standard agar dilution (MIC)
[2] = tested on: Streptococcus b-hemolyticus VGH 84-60; assay: as above
[3] = tested on: Streptococcus b-hemolyticus VGH 0.5; assay: as above
[4] = tested on: Streptococcus b-hemolyticus VGH 84-62; assay: as above
[5] = tested on: Streptococcus pneumoniae SV-1; assay: as above
[6] = tested on: Streptococcus pneumoniae K 84-21; assay: as above
[7] = tested on: Bacteroides vulgaris ATCC 29327; assay: as above
[8] = tested on: Clostridium perfringens ATCC 13124
[9] = tested on: Clostridium difficile ATCC 17858; assay: In vitro antibacterial activity, standard agar dilution (MIC)
[10] = tested on: Peptococcus magnus ATCC 29328; assay: as above
[11] = tested on: Peptococcus magnus ATCC 14956; assay: as above
[12] = tested on: Peptococcus asaccharolyticus ATCC 29743; assay: as above

Compound	Minimal Inhibitory Concentration [1]	Minimal Inhibitory Concentration [2]	Minimal Inhibitory Concentration [3]	Minimal Inhibitory Concentration [4]	Minimal Inhibitory Concentration [5]	Minimal Inhibitory Concentration [6]	Minimal Inhibitory Concentration [7]	Minimal Inhibitory Concentration [8]	Minimal Inhibitory Concentration [9]	Minimal Inhibitory Concentration [10]	Minimal Inhibitory Concentration [11]	Minimal Inhibitory Concentration [12]
Methyl Ester of LL-E19020β [Compound III]	2 µg/mL	2 µg/mL	8 µg/mL	8 µg/mL	8 µg/mL	32 µg/mL	16 µg/mL	> 128 µg/mL	8 µg/mL	≤ 0.06 µg/mL	≤ 0.06 µg/mL	≤ 0.06 µg/mL
Methyl Ester of LL-E19020α [Compound II]	0.12 µg/mL	0.5 µg/mL	2 µg/mL	2 µg/mL	4 µg/mL	8 µg/mL	128 µg/mL	64 µg/mL	2 µg/mL	≤ 0.06 µg/mL	≤ 0.06 µg/mL	≤ 0.06 µg/mL
C/C=C\C=C\C1OC(O)(C(CNC(=O)Cc2ccccc2)C(=O)NC/C=C/C=C(\C)C(OC)C(C)C2CC(O)C(/C=C/C=C/C=C/C(=O)O)O2)C(O)C(O)C1(C)C (stereo not drawn) [Compound I, Ammonolysis Product of LL-E19020 α and β]	8 µg/mL	4 µg/mL	16 µg/mL	16 µg/mL	64 µg/mL	> 128 µg/mL	128 µg/mL	> 128 µg/mL	4 µg/mL	0.25 µg/mL	≤ 0.06 µg/mL	0.25 µg/mL
Monosaccharide of Methyl Ester of LL-E19020β [Compound V]	8 µg/mL	8 µg/mL	32 µg/mL	32 µg/mL	32 µg/mL	64 µg/mL	> 128 µg/mL	> 128 µg/mL	64 µg/mL	≤ 0.06 µg/mL	≤ 0.06 µg/mL	≤ 0.06 µg/mL
Aglycone Methyl Ester of LL-E19020β [Compound VI]	> 128 µg/mL	> 128 µg/mL	> 128 µg/mL	> 128 µg/mL	> 128 µg/mL	> 128 µg/mL	> 128 µg/mL	> 128 µg/mL	–	0.5 µg/mL	0.5 µg/mL	0.5 µg/mL
Monosaccharide of Methyl Ester of LL-E19020α [Compound IV]	4 µg/mL	2 µg/mL	8 µg/mL	8 µg/mL	16 µg/mL	16 µg/mL	> 128 µg/mL	> 128 µg/mL	8 µg/mL	≤ 0.06 µg/mL	≤ 0.06 µg/mL	≤ 0.06 µg/mL
